Test results published in ChEMBL document CHEMBL1201862, “PubChem BioAssay data set” (2004).
Calls of active or inactive are those of the source.

Key:
[1] = biological target: Prothrombin (Homo sapiens, UniProt P00734); test: Thrombin 1536 HTS Dose Response Confirmation. [Related pubchem assays: 1046 (Thrombin 1536 HTS; hits were confirmed in this assay)]; assay type: functional
[2] = Luminescence Cell-Based Dose Confirmation HTS to Identify Activators of 5'UTR Stem-Loop Driven Alpha-Synuclein mRNA Translation in H4 Neuroglioblastoma Cells. [Related pubchem assays: 1829 (Project Summary), 1814 (Primary HTS)]; assay type: functional
[3] = Luminescence Cell-Based Dose Response HTS to Identify Activators of Luciferase Translation or Activity in H4 […] Cells. [Related pubchem assays: 1829 (Project Summary), 1814 (Primary HTS)]; assay type: functional
[4] = test system: H4; test: Luminescence Cell-Based Dose Response HTS to Identify Activators of 5'UTR Stem-Loop Driven Prion Protein mRNA Translation in H4 Neuroglioblastoma Cells. [Related pubchem assays: 1829 (Project Summary), 1814 (Primary HTS)]; assay type: functional; conditions: Homo sapiens
[5] = biological target: T1, Heat shock factor protein 1 (Mus musculus, UniProt P38532); test: decrease of HSF1-responsive luciferase luminescence – cell-based, NIH3T3, dose retest, confirmation (AID 2382); assay type: functional;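 also: NIH3T3 fibroblasts with HSF1-driven luciferase reporter stressed by proteasome inhibitor MG132; luminescence from HSF1-driven luciferase expression after 8 hours of MG132 stress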
T1 sequence (P38532 whole entry): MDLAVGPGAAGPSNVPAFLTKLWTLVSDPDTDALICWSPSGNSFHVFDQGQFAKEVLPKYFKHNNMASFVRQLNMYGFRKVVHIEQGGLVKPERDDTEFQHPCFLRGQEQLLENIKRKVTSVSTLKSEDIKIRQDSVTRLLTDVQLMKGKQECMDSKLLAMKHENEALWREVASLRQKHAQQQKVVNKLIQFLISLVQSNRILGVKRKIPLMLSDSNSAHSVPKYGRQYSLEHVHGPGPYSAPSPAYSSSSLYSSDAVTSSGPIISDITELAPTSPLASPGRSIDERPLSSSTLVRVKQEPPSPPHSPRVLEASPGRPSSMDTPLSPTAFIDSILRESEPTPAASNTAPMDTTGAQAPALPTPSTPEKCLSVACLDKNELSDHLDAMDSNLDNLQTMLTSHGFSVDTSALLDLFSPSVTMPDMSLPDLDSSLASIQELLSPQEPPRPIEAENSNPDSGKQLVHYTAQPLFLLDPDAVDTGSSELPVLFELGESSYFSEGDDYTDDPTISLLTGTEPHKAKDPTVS

[6] = biological target: Cytochrome P450 2C9 (Homo sapiens, UniProt P11712)
Sequence of Cytochrome P450 2C9 (P11712 whole entry): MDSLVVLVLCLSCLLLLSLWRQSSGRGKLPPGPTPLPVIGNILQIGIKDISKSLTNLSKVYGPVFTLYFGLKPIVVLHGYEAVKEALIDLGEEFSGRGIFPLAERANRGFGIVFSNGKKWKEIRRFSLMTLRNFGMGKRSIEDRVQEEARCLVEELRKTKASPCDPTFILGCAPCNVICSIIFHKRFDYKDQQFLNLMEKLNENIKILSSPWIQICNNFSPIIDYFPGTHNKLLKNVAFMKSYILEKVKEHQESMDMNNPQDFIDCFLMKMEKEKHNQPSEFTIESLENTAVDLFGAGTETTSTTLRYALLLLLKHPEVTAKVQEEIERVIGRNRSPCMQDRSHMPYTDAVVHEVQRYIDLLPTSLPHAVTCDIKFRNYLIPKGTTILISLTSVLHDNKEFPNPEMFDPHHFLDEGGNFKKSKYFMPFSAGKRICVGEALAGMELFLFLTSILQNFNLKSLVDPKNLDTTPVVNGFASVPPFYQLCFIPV

[7] = biological target: Glyceraldehyde-3-phosphate dehydrogenase (Homo sapiens, UniProt P04406)
Sequence of Glyceraldehyde-3-phosphate dehydrogenase (P04406 whole entry): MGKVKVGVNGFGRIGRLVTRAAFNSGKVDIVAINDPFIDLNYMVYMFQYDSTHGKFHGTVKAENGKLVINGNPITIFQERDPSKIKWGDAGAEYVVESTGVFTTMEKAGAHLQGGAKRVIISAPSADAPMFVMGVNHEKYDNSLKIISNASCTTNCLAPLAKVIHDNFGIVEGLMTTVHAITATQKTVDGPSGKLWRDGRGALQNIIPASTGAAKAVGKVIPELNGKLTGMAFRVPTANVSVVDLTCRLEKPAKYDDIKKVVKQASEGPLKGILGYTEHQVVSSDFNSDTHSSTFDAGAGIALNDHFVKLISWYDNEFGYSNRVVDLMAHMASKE

[8] = biological target: DNA dC->dU-editing enzyme APOBEC-3A (Homo sapiens, UniProt P31941); test: Dose Response confirmation of small molecule APOBEC3A DNA Deaminase Inhibitors via a fluorescence-based single-stranded DNA deaminase assay. [Related pubchem assays (depositor defined):AID493011, AID493024]; assay type: functional
Sequence of DNA dC->dU-editing enzyme APOBEC-3A (P31941 whole entry): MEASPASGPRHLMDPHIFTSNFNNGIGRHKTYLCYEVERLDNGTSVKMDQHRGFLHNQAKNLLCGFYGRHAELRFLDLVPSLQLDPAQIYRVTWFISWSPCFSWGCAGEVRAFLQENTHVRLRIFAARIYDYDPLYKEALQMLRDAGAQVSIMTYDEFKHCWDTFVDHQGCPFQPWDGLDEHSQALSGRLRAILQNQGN

[9] = biological target: T2, DNA dC->dU-editing enzyme APOBEC-3G (Homo sapiens, UniProt Q9HC16); assay type: functional
T2 sequence (Q9HC16 whole entry): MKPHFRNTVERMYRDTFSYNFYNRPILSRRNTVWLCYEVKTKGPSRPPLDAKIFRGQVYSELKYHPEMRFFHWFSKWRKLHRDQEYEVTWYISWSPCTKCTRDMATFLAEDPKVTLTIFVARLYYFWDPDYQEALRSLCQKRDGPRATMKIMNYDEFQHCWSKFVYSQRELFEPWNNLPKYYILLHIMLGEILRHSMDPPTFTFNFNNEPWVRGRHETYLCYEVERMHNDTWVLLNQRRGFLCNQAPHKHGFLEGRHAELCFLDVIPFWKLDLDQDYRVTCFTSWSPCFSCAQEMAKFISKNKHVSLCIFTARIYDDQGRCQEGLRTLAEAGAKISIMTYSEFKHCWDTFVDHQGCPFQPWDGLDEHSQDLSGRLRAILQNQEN

[10] = biological target: T2, DNA dC->dU-editing enzyme APOBEC-3G; test: Dose Response confirmation of small molecule APOBEC3G DNA Deaminase Inhibitors via a fluorescence-based single-stranded DNA deaminase assay. [Related pubchem assays (depositor defined):AID493012, AID493028]; assay type: functional
[11] = A cytotoxicity screen of small molecule inhibitors of the PhoP region in Salmonella typhi identified in the primary screen. [Related pubchem assays: 1850, 1864, 1985 ]; assay type: functional
[12] = biological target: Induced myeloid leukemia cell differentiation protein Mcl-1 (Homo sapiens, UniProt Q07820); assay type: functional
Sequence of Induced myeloid leukemia cell differentiation protein Mcl-1 (Q07820 whole entry, the tested form may be a part): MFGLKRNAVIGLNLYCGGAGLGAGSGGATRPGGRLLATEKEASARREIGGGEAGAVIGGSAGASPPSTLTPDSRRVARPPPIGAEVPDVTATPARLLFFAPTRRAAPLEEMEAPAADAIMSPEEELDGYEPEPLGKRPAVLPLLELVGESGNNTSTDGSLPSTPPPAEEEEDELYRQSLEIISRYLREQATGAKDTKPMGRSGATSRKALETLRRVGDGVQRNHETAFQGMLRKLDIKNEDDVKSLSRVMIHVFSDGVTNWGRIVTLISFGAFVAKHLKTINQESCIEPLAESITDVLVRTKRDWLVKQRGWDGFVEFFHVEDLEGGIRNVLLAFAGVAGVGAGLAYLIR

[13] = biological target: T3, Carboxy-terminal domain RNA polymerase II polypeptide A small phosphatase 1 (Homo sapiens, UniProt Q9GZU7); test: CTDSP1 inhibitors, concentration-response, biochemical, absorbance readout, ultra-high-throughput screen actives (AID 540297); assay type: functional
T3 sequence (Q9GZU7 whole entry): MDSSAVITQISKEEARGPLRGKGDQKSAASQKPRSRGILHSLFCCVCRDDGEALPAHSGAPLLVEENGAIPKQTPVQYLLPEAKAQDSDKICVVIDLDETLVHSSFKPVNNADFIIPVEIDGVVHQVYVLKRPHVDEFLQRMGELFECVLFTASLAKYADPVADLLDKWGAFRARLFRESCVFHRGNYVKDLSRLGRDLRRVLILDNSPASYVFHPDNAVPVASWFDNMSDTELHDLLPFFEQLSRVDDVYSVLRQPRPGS

[14] = biological target: T4, Caspase-6 (Homo sapiens, UniProt P55212); test: inhibition of CASP6 peptide cleavage – biochemical, VEID-R110 fluorescence, cherry-pick, dose response (AID 720632)
T4 sequence (P55212 whole entry): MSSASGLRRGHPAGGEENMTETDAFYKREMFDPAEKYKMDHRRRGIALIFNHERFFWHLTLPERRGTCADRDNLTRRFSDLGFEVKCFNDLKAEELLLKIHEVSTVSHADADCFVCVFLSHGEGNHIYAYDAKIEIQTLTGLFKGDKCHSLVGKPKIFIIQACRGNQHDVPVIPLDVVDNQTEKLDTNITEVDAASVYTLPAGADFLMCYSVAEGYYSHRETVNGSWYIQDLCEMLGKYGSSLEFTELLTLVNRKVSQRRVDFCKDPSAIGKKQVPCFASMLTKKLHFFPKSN

[15] = biological target: Luciferin 4-monooxygenase (Photinus pyralis, UniProt P08659); test: inhibition of purified Photinus pyralis luciferase – biochemical, luminescence, dose response (AID 1891)
Sequence of Luciferin 4-monooxygenase (P08659 whole entry): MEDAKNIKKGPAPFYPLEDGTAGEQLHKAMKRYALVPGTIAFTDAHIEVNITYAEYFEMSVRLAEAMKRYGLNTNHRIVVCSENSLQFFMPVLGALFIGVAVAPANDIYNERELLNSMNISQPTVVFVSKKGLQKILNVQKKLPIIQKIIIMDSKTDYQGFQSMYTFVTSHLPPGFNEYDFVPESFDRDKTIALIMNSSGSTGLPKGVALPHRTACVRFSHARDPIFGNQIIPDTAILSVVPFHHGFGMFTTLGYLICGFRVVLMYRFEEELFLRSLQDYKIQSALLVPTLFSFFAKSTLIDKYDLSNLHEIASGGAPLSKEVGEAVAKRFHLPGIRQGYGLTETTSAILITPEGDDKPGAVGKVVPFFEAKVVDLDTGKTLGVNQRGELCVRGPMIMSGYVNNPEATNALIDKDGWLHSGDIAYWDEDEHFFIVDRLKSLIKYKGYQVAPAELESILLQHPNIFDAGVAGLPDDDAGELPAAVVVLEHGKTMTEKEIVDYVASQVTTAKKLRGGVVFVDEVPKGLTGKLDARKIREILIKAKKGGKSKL

[16] = Luminescence Cell-Based Dose Confirmation HTS to Identify Inhibitors of Platelet Dense Granule Release. [Related pubchem assays: 1663 (Primary HTS), 1678 (Summary of Project)]; assay type: functional
[17] = test system: HEK293; test: EBV LMP1 TES2 canonical NF-kB signalling blockers – cell-based, HEK293, luciferase, cherry-pick, dose response (AID 588343); assay type: functional; conditions: Homo sapiens

Compound: O=C(c1ccccc1)n1nnc2ccccc21
- IC50 [1]: 0.431 µM (active)

Compound: CC1=C(C(=O)Nc2ccccc2)C(c2ccc(O)cc2)N2C(=O)CSC2=N1 (stereo unspecified)
- IC50 [1]: 25.2 µM (active)

Compound: COc1ccccc1C(=O)NC(=S)N1CCCc2ccccc21
- EC50 [2]: 29.9 µM (active)
- EC50 [3]: 9.63 µM (active)
- EC50 [4]: 31.6 µM (active)
- EC50 [5]: 16.2 µM (active)
- AC50 [6]: inconclusive

Compound: O=C1C(Cl)=C(N2CCN(Cc3ccc4c(c3)OCO4)CC2)C(=O)N1c1ccc(C(F)(F)F)cc1
- IC50 [7]: > 50 µM (inconclusive)

Compound: CCN1C(NCCOC)=N[C@@H](c2cccs2)C(C(=O)OC)=C1C
- IC50 [8]: 4.37 µM (active)
- IC50 [9]: 8.01 µM (active)

Compound: COC(=O)C1=C(C)N(Cc2ccccc2)C(NCCCCO)=N[C@H]1c1cccc(C(F)(F)F)c1
- IC50 [8]: 4.94 µM (active)
- IC50 [9]: 7.1 µM (active)

Compound: COc1ccccc1OC(C)C(=O)N1CCN(Cc2ccc3c(c2)OCO3)CC1 (stereo unspecified)
- IC50 [8]: 7.43 µM (active)
- IC50 [9]: 8.33 µM (active)

Compound: COc1ccc(NC(=S)c2ccc3ccccc3n2)cc1
- IC50 [10]: 66.5 µM (active)

Compound: CN(Cc1ccccc1)CC(O)COc1ccc(CNCCCOc2cccnc2)cc1 (stereo unspecified)
- EC50 [11]: > 50 µM (active)

Compound: CCN(c1ccc(NC(=O)COC(=O)/C=C/c2cccs2)cc1)C(C)C
- IC50 [12]: 3.34 µM (active)

Compound: O=C1CCCC(O)=C1Sc1ccccc1C(=O)O
- IC50 [8]: 13.3 µM (active)
- IC50 [9]: 43.8 µM (active)

Compound: CC(C)c1ccc2oc(=O)cc(CN3CCN(c4ccc(F)cc4)CC3)c2c1
- EC50 [11]: > 50 µM (active)

Compound: Cc1ccc(S(=O)(=O)N2CCN(C(=O)C3COc4ccccc4O3)CC2)cc1C (stereo unspecified)
- AC50 [6]: inconclusive

Compound: O=C(O)/C(=C\c1cccc([N+](=O)[O-])c1)c1ccc(S(=O)(=O)N2CCCCC2)s1
- IC50 [13]: 9.53 µM (active)
- AC50 [14]: 13.9 µM (active)

Compound: Cn1cnc(C(=O)N2CCN(c3ccccc3)CC2)c1C(=O)N1CCN(c2ccccc2)CC1
- IC50 [8]: 2.75 µM (active)
- IC50 [9]: 6.53 µM (active)
- IC50 [13]: 7.05 µM (active)

Compound: CC(=O)c1c(C)[nH]c(C(=O)CSc2nnc(-c3ccc(Cl)cc3)n2CC2CCCO2)c1C (stereo unspecified)
- EC50 [11]: > 50 µM (active)
- EC50 [15]: > 112 µM (not active)
- EC50 [16]: > 112 µM (not active)

Compound: Cc1cc2ncn(C(=O)c3ccc4c(c3)OCO4)c2cc1C
- IC50 [1]: 5.76 µM (active)

Compound: Cc1ccc(-n2c(C)c([N+](=O)[O-])c3ccc(O)c(CN(C)C)c32)cc1
- AC50 [17]: 8.54 µM (active)
